Results from ChEMBL document CHEMBL3507680, “University of Dundee, Gates Library screen for HepG2 cell viability”.

Experiment: Human HepG2 cell viability assay in 384 well format
Format: toxicity, cell-based
Parameters: dose 125 nL, time 70.5 hour; cytotoxicity at 70.5 h: concentration not given beside the values
Conditions: HepG2 cells, read-out: Inhibition

Point of comparison: CN1CCCC(Cc2cncc(C(=O)NC3CC3)c2)C1 (configuration not stated), cytotoxicity at 70.5 h -6.9%. Against it:
- CC(C)N(C)C(=O)COc1ccc(-c2noc(C3CCCO3)n2)cc1 (configuration not stated) — higher, 5.4%
- COCc1ncc(CN(CCN(C)C)Cc2ccc(C)s2)cn1 — higher, -4.43%
- c1cnn(-c2ccc(CCNC3CCN(C4CC4)C3)cc2)c1 (configuration not stated) — higher, 0.821%
- OCC1CCCN1c1cc(NCc2cccnc2)ncn1 (configuration not stated) — higher, -1.41%
- CN(CC(=O)Nc1nc2c(s1)CCCCCC2)C(=O)c1ccco1 — lower, -17.3%
- CN(C)c1ncc(NS(=O)(=O)c2ccc(OC(F)(F)F)cc2)cn1 — higher, 3.34%
- C[C@H]1CCCCN1CCCNc1nccc(-c2c[nH][nH]c2=O)n1 — higher, 4.41%
- CC(=O)N1CCc2[nH]nc(C(=O)N3CC=CC3)c2C1 — higher, 34.9%
- NC(=O)C1CCCN(Cc2c(-c3ccco3)[nH]c3ncccc23)C1 (configuration not stated) — lower, -10.6%
- CC(=O)N1CCOC2(CCN(C(=O)c3cnoc3C)CC2)C1 — higher, 2.68%
- COCC(=O)N[C@H]1C[C@@H](C(=O)NCCc2cccc(Cl)c2)N(C)C1 — lower, -13.3%
- COCC(C)NC(=O)CCSc1ccc(F)cc1 (configuration not stated) — higher, 13.7%
- Cc1cnn(CCNCC(O)COc2c(Cl)cccc2Cl)c1 (configuration not stated) — higher, -4.22%
- COCC(=O)N1CCC(c2ccc(OC)cc2)C1 (configuration not stated) — lower, -16.3%
- CCC[C@@H]1CN(C(=O)c2ccccc2-c2ncc[nH]2)C[C@H]1N(C)C — higher, -2.55%
- NC(=O)c1ccc(=O)n(Cc2cc(Br)ccc2Cl)n1 — higher, -5.48%
- CC(C)C(C(=O)N1CCC2(CC1)CN(C)C(=O)O2)c1ccccc1 (configuration not stated) — lower, -8.69%
- Cc1ccc(C(=O)NS(C)(=O)=O)cc1I — higher, 16.8%
- Cc1noc2ncc(C(=O)N3CCCC3c3cnn(C)c3)cc12 (configuration not stated) — higher, -6.59%
- CN1C(=O)CC[C@@H]2N(C(=O)CCc3cccnc3)CCCC[C@@]21C — higher, -1.68%
- CCC(C)(NCC(=O)NC(=O)NC)c1nc(C)cs1 (configuration not stated) — higher, -4.2%
- O=C1NC[C@]2(CC[C@@H](C(=O)N3CCC(O)CC3)CC2)Oc2ccccc21 — higher, -4.51%
- COCCO[C@@H]1CCN(C(=O)c2ccc(C)o2)[C@@H]1Cc1cccnc1 — higher, 4.05%
- Cc1nnc(NCc2ccc(Br)cc2)o1 — higher, -4.41%
- COCC(=O)NCC1CCCN(Cc2cc3ccccc3[nH]2)C1 (configuration not stated) — lower, -13.5%
- COC(=O)c1ccc(Cl)c(S(=O)(=O)Nc2ccc(F)c(C(N)=O)c2)c1 — lower, -14.5%
- Cn1c(CN2CCOCC2)cc(=O)c(O)c1CN1CCCCC1 — higher, -4.64%
- CN(C)Cc1cnc2n1CCN(C(=O)NCc1ccccc1)CC2 — higher, 4.32%
- O=C(C1CC=CC1)N1CCC2(CC1)CNCCO2 — higher, -5.99%
- CC(=O)NCC(=O)N1CCN(Cc2cccnc2)c2ncccc2C1 — lower, -15.1%
- NC(=O)c1ccc(NC(=O)N2CCN(c3cccs3)CC2)c(F)c1 — lower, -16.2%
- COc1ccc(-c2cc(N)on2)cc1OC — higher, -2.02%
- CCc1nsc(N2CCCN(CC(=O)N(C)C3CC3)CC2)n1 — higher, -6.24%
- CN(Cc1n[nH]c(=O)n1Cc1cccs1)S(C)(=O)=O — higher, -0.816%
- Cc1cc(C)c2c(N3CCC(O)(Cn4ccnc4)CC3)ncnc2n1 — higher, -0.18%
- Cc1ccc2nccc(C(=O)N3CCOC(CCN(C)C)C3)c2c1 (configuration not stated) — higher, 15.6%
- CCCN(CC1CC1)S(=O)(=O)c1ccc(NC(C)=O)cc1 — higher, -1.65%
- FC(F)(F)CCc1ccnc(N2CCN(Cc3ccncc3)CC2)n1 — lower, -13.8%
- CN1CC(=O)N(c2ccccc2)CC12CCN(Cc1nccn1C)C2 (configuration not stated) — higher, 4.89%
- O=C(CC1CC1)N[C@@H]1CN(C(=O)c2ccoc2)C[C@@H]2CCCO[C@@H]21 — lower, -12.7%
- Cc1cn(CC(=O)NC2CCC(C(=O)O)CC2)c2ccccc12 (configuration not stated) — higher, -6.01%
- CCN(Cc1ccc(C)o1)C(=O)C(C)n1ccnc1C(C)C (configuration not stated) — lower, -16.9%
- CCc1ccc(C(NC(=O)CCS(C)(=O)=O)C(C)(C)C)o1 (configuration not stated) — lower, -8.82%
- CN1CCN(CCO)C(=O)C12CCN(Cc1ccsc1)CC2 — lower, -8.5%
- COc1cc(N2CC[C@@H]3O[C@@H](C(=O)NC(C)C)C[C@@H]32)ncn1 — lower, -8.65%
- CN(C)C(=O)c1cnc2n1CCN(Cc1ccncc1)C2 — higher, 19.9%
- CN(CCC#N)C(=O)Cn1cnc2c(Br)cccc2c1=O — higher, -1.58%
- CCCn1nccc1-c1cc(C2CCN(C(C)=O)CC2)ccn1 — lower, -8.34%
- Cc1ccc(N2C[C@H](O)[C@@H](N3CCN(c4ccccn4)CC3)C2)nn1 — lower, -11.3%
- CC(C)(C)NC(=O)NCc1cnn2ccccc12 — lower, -9.3%
- CCc1nc(C2CCCN2CCn2cncn2)no1 (configuration not stated) — higher, -5.31%
- CC(=O)c1cc(CC(=O)NCc2c(F)cccc2F)cs1 — lower, -7.61%
- Cc1ccc(CN2CCN(CC3CC3)[C@@H]3CS(=O)(=O)C[C@@H]32)cc1C — higher, -6.12%
- Cc1[nH]c2ccc(CNc3cc(C(N)=O)ccn3)cc2c1C — higher, -0.16%
- Cc1ccsc1CN(C)Cn1nccc1-c1cccnc1 — higher, -2.36%
- CCc1cc(C(F)(F)F)c2c(C3CCCN(C(=O)COC)C3)noc2n1 (configuration not stated) — higher, -4.44%
- O=C(NCc1c(F)cccc1F)C1CN(C(=O)c2cnccn2)C1 — higher, -6.6%
- CCN1CCN(c2ccc(C(=O)NCCOC)cc2F)CC1 — higher, 25.2%
- CC(Cc1ccsc1)NC(=O)c1cc(N2CCNC2=O)ccc1F (configuration not stated) — lower, -9.62%
- CCc1nc(CN2CCCC(N(C)CCn3cncn3)C2)no1 (configuration not stated) — lower, -9.76%
- N#CCSCCCN1CCN(C(=O)C2CCCC2)CC1 — higher, -5.88%
- O=C(CN1CCCC1c1noc(C2CC2)n1)N1CCc2ccccc21 (configuration not stated) — lower, -7.43%
- CC(C)(CNC(=O)Nc1cccc(-c2nccs2)c1)C(N)=O — higher, -0.236%
- COc1ncccc1CNCc1c(C)nn(C)c1N1CCOCC1 — lower, -12.3%
- CC(O)CN1CCC(CNCc2ccccc2C(F)(F)F)CC1 (configuration not stated) — higher, 13.9%
- CN(C)C(=O)c1n[nH]c2c1CN(CC1CCC1)C2 — higher, -1.39%
- Cc1cccc(NC(=O)C2CSc3ncc(C)c(=O)n3C2)n1 (configuration not stated) — lower, -9.15%
- Cc1nc[nH]c1C(=O)N1CCCC2(CN(C)C(=O)O2)C1 (configuration not stated) — higher, -0.146%
- COCC1CN(C(=O)Nc2cc(Br)ccc2F)CCO1 (configuration not stated) — lower, -10.1%
- Cc1cc(NC(=O)CN2CCn3c(nnc3C3CC3)C2)on1 — higher, -2.62%
- CC(Cc1cccc(Cl)c1)NC(=O)Nc1cnn(CC(N)=O)c1 (configuration not stated) — higher, -1.82%
- COc1cccc(CN(C)CC2=Nc3ccccc3S(=O)(=O)N2)c1 — lower, -8.56%
- CC(C)OCCC(=O)NCC(c1c(F)cccc1F)N(C)C (configuration not stated) — higher, 22.3%
- O=C(Cc1csc(N2CCNC2=O)n1)NC(c1ccccc1)C1CC1 (configuration not stated) — higher, -3.72%
- CCCc1nc(C(=O)NCCCn2nnc3ccccc32)cs1 — lower, -8.53%
- NC(=O)CSc1ccccc1NCc1nc(Cc2ccccc2)no1 — higher, -6.14%
- N#Cc1ccc(OCCn2cccn2)cc1 — lower, -16.4%
- O=C(NCC1CC1)Nc1ccc(OCC(F)(F)F)nc1 — lower, -9.95%
- Cc1csc2c(N3CCC(NCCCc4cnn(C)c4)CC3)ncnc12 — higher, 2.87%
- CN(C)C(=O)COC[C@]12COC[C@H]1CN(Cc1ccccc1)C2 — higher, -2.22%
- O=c1[nH]nc(CNCc2ccc(OC34CCCN(CC3)C4)cc2)[nH]1 (configuration not stated) — higher, -4.91%
